In patent US20080085494A1, “Dental Compositions Containing Oxirane Monomers” (priority 2004, published 2008) one finds Ames mutagenicity data, which are given here for four molecules.

Common to all, as to type: cell-based
Holding throughout (conditions): results to date

One data set has as its system strain TA100. Nature of the data set: Ames mutagenicity evaluation, strain TA100. How it is done: (§1) Ames mutagenicity evaluations of Compounds A-D were performed by the School of Pharmacy, University of Missouri at Kansas City (UMKC). Results to date have shown Compounds A, C, and D to be negative in strains TA100 and TA97A.
For orientation: The Ames test detects mutagens through reverse mutation in bacteria.

The subject of a further data set is strain TA97A. As to the kind of experiment: Ames mutagenicity evaluation, strain TA97A. How it is done:
as §1

For a further data set, the system named is strain TA1535. As to the kind of experiment: Ames mutagenicity evaluation, strain TA1535.
Another data set deals with strain TA98. Nature of the data set: Ames mutagenicity evaluation, strain TA98.
The next data set concerns strain TA102. As to the kind of experiment: Ames mutagenicity evaluation, strain TA102.

SMILES strings stand for the structures.

Regarding `c1ccc(OCCCCCCOc2ccccc2CC2CO2)c(CC2CO2)c1` (centres unmarked) [Compound D, 1,6-Bis[2-(2,3-epoxypropyl)phenoxy]hexane], the Ames mutagenicity entry in the data set with strain TA100 and in the data set with strain TA97A was “negative” in each case.
For the molecule `c1ccc(OCCCCCOc2ccccc2CC2CO2)c(CC2CO2)c1` (centres unmarked) [Compound C, 1,5-Bis[2-(2,3-epoxypropyl)phenoxy]pentane], the Ames mutagenicity entry in the data set with strain TA100 and in the data set on strain TA97A was “negative” each time.
`c1ccc(OCCCCCCCCCCOc2ccccc2CC2CO2)c(CC2CO2)c1` (centres unmarked) [Compound A, 1,10-Bis[2-(2,3-epoxypropyl)phenoxy]decane]: the Ames mutagenicity entry in the data set with strain TA100 and in the data set on strain TA97A was “negative” in each case.
Turning to `c1ccc(OCCCOc2ccccc2CC2CO2)c(CC2CO2)c1` (centres unmarked) [Compound B, 1,3-Bis[2-(2,3-epoxypropyl)phenoxy]propane], the Ames mutagenicity entry was “negative” in the data set on strain TA100; “marginally positive” in the data set with strain TA97A; “negative” in the data set on strain TA1535; “negative” in the data set with strain TA98; “negative” with strain TA102.
